The values below come from ChEMBL document CHEMBL1149482, “Syntheses of triazole-modified zanamivir analogues via click chemistry and anti-AIV activities” (Bioorg Med Chem Lett, 2006).

A word on the EC50: it is the concentration needed to bring the measured effect to its halfway point. The low end stands for higher potency in that assay, the high end for lower potency in that assay.

Assay [1] has as its system MDCK. As to the kind of experiment: Antiviral activity against avian influenza virus H5N1 measured as protective rate against MDCK cells at 50 uM by neutral red uptake assay. In kind it is functional.
For assay [2], the system named is MDCK. As to the kind of experiment: Antiviral activity against avian influenza virus H5N1 in MDCK cells measured as reduction in infected cells relative to control. It counts as functional, cell-based. The following applies: Canis lupus familiaris.

Active and inactive are the calls of the source. No cut-off for these calls is given here.

In the assay with MDCK [1], `COC(=O)C1=C[C@H](n2cc(C(=O)OC)nn2)[C@@H](NC(C)=O)[C@H]([C@H](O)[C@H](O)CO)O1` displayed an Activity of 9.9%.

Turning to `CCCOc1ccc(-c2cn([C@H]3C=C(C(=O)O)O[C@@H]([C@H](O)[C@H](O)CO)[C@@H]3NC(C)=O)nn2)cc1`, the Activity with MDCK [1] came to 40.2%.

Consider `CC(=O)N[C@H]1[C@H]([C@H](O)[C@H](O)CO)OC(C(=O)O)=C[C@@H]1n1cc(-c2ccc(F)cc2)nn1`, for which the outcome in the assay with MDCK [1] was inactive.

For the compound `CC(=O)N[C@H]1[C@H]([C@H](O)[C@H](O)CO)OC(C(=O)O)=C[C@@H]1n1cc(-c2ccccn2)nn1`, the outcome in the assay with MDCK [1] was inactive.

As for `CC(=O)N[C@H]1[C@H]([C@H](O)[C@H](O)CO)OC(C(=O)O)=C[C@@H]1n1cc(CCCO)nn1`, the Activity with MDCK [1] turned out to be 6.3%.

In the assay on MDCK [1], `CCc1ccc(-c2cn([C@H]3C=C(C(=O)O)O[C@@H]([C@H](O)[C@H](O)CO)[C@@H]3NC(C)=O)nn2)cc1` had an Activity of 34.4%.

For `CC(=O)N[C@H]1[C@H]([C@H](O)[C@H](O)CO)OC(C(=O)O)=C[C@@H]1n1cc(CCO)nn1`, the Activity in the assay on MDCK [1] stood at 14.5%.

In turn, `CC(=O)N[C@H]1[C@H]([C@H](O)[C@H](O)CO)OC(C(=O)O)=C[C@@H]1n1cc(CN2CCOCC2)nn1` had an Activity in the assay on MDCK [1] of 17.3%.

`CC(=O)N[C@H]1[C@H]([C@H](O)[C@H](O)CO)OC(C(=O)O)=C[C@@H]1NC(=N)N` [ZANAMIVIR] displayed an EC50 with MDCK [2] of 2.8 µM. This compound yielded an Activity in the assay on MDCK [1] of 86.1%.

On to `CCC(O)c1cn([C@H]2C=C(C(=O)O)O[C@@H]([C@H](O)[C@H](O)CO)[C@@H]2NC(C)=O)nn1` (some centres undefined), for which the EC50 with MDCK [2] was found to be 6.4 µM. Also, the Activity in the assay with MDCK [1] is recorded as greater than 61.4%.

Compound `CC(=O)N[C@H]1[C@H]([C@H](O)[C@H](O)CO)OC(C(=O)O)=C[C@@H]1n1cc(C2CC2)nn1` gave an Activity in the assay with MDCK [1] of 8.9%.

In the assay with MDCK [1], `CCC(O)c1cn([C@H]2C=C(C(=O)OCCC(C)C)O[C@@H]([C@H](O)[C@H](O)CO)[C@@H]2NC(C)=O)nn1` (some centres undefined) yielded an Activity of 8.9%.

In the assay with MDCK [1], `CC(=O)N[C@H]1[C@H]([C@H](O)[C@H](O)CO)OC(C(=O)O)=C[C@@H]1n1cc(-c2ccccc2)nn1` registered an Activity of 18.7%.

The compound `CCCc1ccc(-c2cn([C@H]3C=C(C(=O)O)O[C@@H]([C@H](O)[C@H](O)CO)[C@@H]3NC(C)=O)nn2)cc1` gave an Activity in the assay on MDCK [1] of 22.1%.

As for `CC(=O)N[C@H]1[C@H]([C@H](O)[C@H](O)CO)OC(C(=O)O)=C[C@@H]1n1cc(CN)nn1`, the result in the assay with MDCK [1] was inactive.

As for `CC(=O)N[C@H]1[C@H]([C@H](O)[C@H](O)CO)OC(C(=O)O)=C[C@@H]1n1cc(-c2ccc(-c3ccccc3)cc2)nn1`, the Activity in the assay on MDCK [1] stood at 19.1%.

Turning to `CC(=O)N[C@H]1[C@H]([C@H](O)[C@H](O)CO)OC(C(=O)O)=C[C@@H]1n1cc(COc2ccccc2)nn1`, the Activity with MDCK [1] was 34.8%.
